Test results from the NIST ThermoML archive (doi:10.1016/j.fluid.2015.04.017).
± gives the expanded uncertainty stated by the source.

Assay: xn = mol fraction of the nth substance listed
Conditions: 101 kPa, Liquid; for viscosity: Concentric cylinders viscometry; for mass density: Vibrating tube method

CCOC(=O)C(C)O (stereo not drawn) [DL-ethyl lactate] + Cc1ccccc1
Conditions | mass density, 308.15 K [kg/m3] | mass density, 313.15 K [kg/m3] | mass density, 318.15 K [kg/m3] | mass density, 323.15 K [kg/m3] | viscosity, 308.15 K [mPa·s] | viscosity, 313.15 K [mPa·s] | viscosity, 318.15 K [mPa·s] | viscosity, 323.15 K [mPa·s]
x1 = 0.1001 | 868.317 ± 0.13 | 863.457 ± 0.13 | 858.58 ± 0.14 | 853.686 ± 0.14 | 0.5513 ± 0.0069 | 0.5218 ± 0.0067 | 0.4943 ± 0.0065 | 0.4712 ± 0.0063
x1 = 0.2001 | 884.843 ± 0.14 | 879.836 ± 0.14 | 874.813 ± 0.14 | 869.771 ± 0.14 | 0.6122 ± 0.0074 | 0.5761 ± 0.0071 | 0.5433 ± 0.0069 | 0.5163 ± 0.0067
x1 = 0.3 | 901.583 ± 0.14 | 896.465 ± 0.14 | 891.323 ± 0.14 | 886.165 ± 0.15 | 0.6876 ± 0.0081 | 0.6439 ± 0.0077 | 0.6042 ± 0.0074 | 0.5718 ± 0.0071
x1 = 0.4 | 918.463 ± 0.15 | 913.246 ± 0.15 | 908.008 ± 0.15 | 902.749 ± 0.15 | 0.7756 ± 0.0089 | 0.7225 ± 0.0084 | 0.6744 ± 0.008 | 0.6343 ± 0.0077
x1 = 0.4998 | 935.187 ± 0.16 | 929.878 ± 0.16 | 924.579 ± 0.16 | 919.234 ± 0.16 | 0.8842 ± 0.0099 | 0.8182 ± 0.0093 | 0.7599 ± 0.0088 | 0.7115 ± 0.0084
x1 = 0.6001 | 952.011 ± 0.17 | 946.664 ± 0.17 | 941.286 ± 0.17 | 935.886 ± 0.17 | 1.017 ± 0.011 | 0.935 ± 0.01 | 0.8633 ± 0.0098 | 0.8038 ± 0.0092
x1 = 0.7 | 968.604 ± 0.18 | 963.183 ± 0.18 | 957.74 ± 0.18 | 952.282 ± 0.18 | 1.176 ± 0.013 | 1.073 ± 0.012 | 0.985 ± 0.011 | 0.912 ± 0.01
x1 = 0.7999 | 985.109 ± 0.2 | 979.648 ± 0.2 | 974.163 ± 0.2 | 968.653 ± 0.2 | 1.367 ± 0.015 | 1.239 ± 0.013 | 1.13 ± 0.012 | 1.038 ± 0.011
x1 = 0.9 | 1001.53 ± 0.21 | 996.054 ± 0.21 | 990.49 ± 0.21 | 984.965 ± 0.21 | 1.592 ± 0.017 | 1.432 ± 0.015 | 1.296 ± 0.014 | 1.186 ± 0.013
x1 = 1 | 1017.42 ± 0.24 | 1011.9 ± 0.24 | 1006.36 ± 0.23 | 1000.79 ± 0.23 | 1.858 ± 0.02 | 1.658 ± 0.018 | 1.491 ± 0.016 | 1.349 ± 0.015
